The values below come from US12162820B2 (TAIWANJ PHARMACEUTICALS CO., LTD., priority 2019, dated 2024).

The term inhibition denotes the percentage by which the read-out fell short of the control.

Bounds are passed on as bounds.

Assay type in all cases: biochemical
One assay addresses T1, HDAC1 (Homo sapiens, UniProt Q13547).
T1 construct: purchased Enzo Life Sciences
The assay is described as follows: HDAC Inhibition Screening Assay (FLUOR DE LYS Fluorimetric Drug Discovery Kit), HDAC1. The note with it: for inhibition at 2 µM: 2 μM compound; for inhibition at 10 µM: 10 μM compound; for inhibition at 50 µM: 50 μM compound. The method in brief:
(§1)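 Compounds at 2 μM, 10 μM and 50 μM were each tested against HDAC1, HDAC2 and HDAC3 using a two-step fluorimetric assay. Results are given as percent of basal control after baseline subtraction.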

For a further assay, the target named is T2, HDAC3 (Homo sapiens, UniProt O15379).
T2 construct: purchased Enzo Life Sciences
The assay is described as follows: HDAC Inhibition Screening Assay (FLUOR DE LYS Fluorimetric Drug Discovery Kit), HDAC3. The note with it: for inhibition at 2 µM: 2 μM compound; for inhibition at 10 µM: 10 μM compound; for inhibition at 50 µM: 50 μM compound. The gist of the method: as §1

Another assay has as its target T3, HDAC2 (Homo sapiens, UniProt Q92769).
T3 construct: purchased Enzo Life Sciences
Kind of assay: HDAC Inhibition Screening Assay (FLUOR DE LYS Fluorimetric Drug Discovery Kit), HDAC2. The note with it: for inhibition at 2 µM: 2 μM compound; for inhibition at 10 µM: 10 μM compound; for inhibition at 50 µM: 50 μM compound. The gist of the method: as §1

The next assay deals with T4, ATX (autotaxin) (Homo sapiens, UniProt Q13822).
T4 construct: purchased Cayman 10803
Kind of assay: Autotaxin Inhibition Screening Assay (choline release from LPC, LPC-CR). The note with it: for inhibition at 4 µM: 4 μM compound; for inhibition at 20 µM: 20 μM compound; for inhibition at 50 µM: 50 μM compound. The method in brief: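 Released choline from 100 μM 14:0 LPC, detected via choline oxidase–HRP–homovanillic acid fluorescence (320/450 nm) kinetically over 90 min, reports activity of 20 ng ATX. Buffer: 50 mM Tris pH 8.0, 50 mM CaCl2, 0.01% Triton X-100; test compounds 4, 20, 50 μM; percent inhibition from blank-subtracted slopes relative to vehicle.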

T1 sequence (Q13547 whole entry): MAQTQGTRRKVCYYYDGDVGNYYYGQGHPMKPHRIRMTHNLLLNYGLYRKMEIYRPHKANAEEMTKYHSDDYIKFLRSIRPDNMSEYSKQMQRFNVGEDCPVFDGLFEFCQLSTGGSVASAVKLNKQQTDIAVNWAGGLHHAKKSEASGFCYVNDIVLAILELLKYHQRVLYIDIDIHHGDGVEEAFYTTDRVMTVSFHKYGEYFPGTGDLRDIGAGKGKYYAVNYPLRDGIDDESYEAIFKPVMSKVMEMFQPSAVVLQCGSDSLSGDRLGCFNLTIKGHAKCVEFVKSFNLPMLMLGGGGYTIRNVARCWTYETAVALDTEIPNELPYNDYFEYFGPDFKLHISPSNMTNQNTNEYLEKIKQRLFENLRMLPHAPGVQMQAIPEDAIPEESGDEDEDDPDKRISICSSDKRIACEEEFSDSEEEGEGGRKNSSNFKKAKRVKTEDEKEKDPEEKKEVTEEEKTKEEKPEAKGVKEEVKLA
T3 sequence (Q92769 whole entry): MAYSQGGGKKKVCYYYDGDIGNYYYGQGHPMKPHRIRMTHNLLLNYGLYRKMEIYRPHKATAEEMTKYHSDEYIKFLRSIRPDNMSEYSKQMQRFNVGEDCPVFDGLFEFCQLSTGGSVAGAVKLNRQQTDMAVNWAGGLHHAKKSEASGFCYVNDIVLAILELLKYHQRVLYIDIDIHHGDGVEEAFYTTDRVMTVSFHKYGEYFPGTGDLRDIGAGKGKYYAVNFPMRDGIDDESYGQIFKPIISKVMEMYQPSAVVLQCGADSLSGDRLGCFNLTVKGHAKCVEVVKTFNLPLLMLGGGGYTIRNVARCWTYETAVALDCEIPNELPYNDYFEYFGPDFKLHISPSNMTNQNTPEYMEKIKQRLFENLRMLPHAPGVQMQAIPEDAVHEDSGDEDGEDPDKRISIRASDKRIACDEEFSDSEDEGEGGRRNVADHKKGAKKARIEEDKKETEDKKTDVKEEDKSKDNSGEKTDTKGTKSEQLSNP
T2 sequence (O15379 whole entry): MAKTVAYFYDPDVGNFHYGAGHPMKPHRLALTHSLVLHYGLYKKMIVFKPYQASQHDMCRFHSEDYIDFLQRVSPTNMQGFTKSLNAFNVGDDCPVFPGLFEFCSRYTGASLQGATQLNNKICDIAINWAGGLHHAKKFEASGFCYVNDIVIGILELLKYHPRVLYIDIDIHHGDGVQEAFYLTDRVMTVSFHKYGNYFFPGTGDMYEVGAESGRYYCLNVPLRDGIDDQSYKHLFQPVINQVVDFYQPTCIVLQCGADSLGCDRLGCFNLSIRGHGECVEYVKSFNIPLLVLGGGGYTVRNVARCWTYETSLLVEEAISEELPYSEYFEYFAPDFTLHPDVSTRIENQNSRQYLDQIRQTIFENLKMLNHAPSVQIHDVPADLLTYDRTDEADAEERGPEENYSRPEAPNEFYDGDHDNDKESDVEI
T2 sequence (O75376 395-489 partner limits assumed): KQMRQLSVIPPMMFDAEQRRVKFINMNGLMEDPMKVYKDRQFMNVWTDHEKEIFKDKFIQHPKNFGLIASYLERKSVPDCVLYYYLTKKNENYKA

For `Nc1cc(F)ccc1NC(=O)CCCCCNC(=O)/C=C/c1ccc2c(c1)CCC2NC(=O)c1ccc(F)cc1` (stereo not drawn) [Compound 31, (E)-N-(5-(3-((6-((2-amino-4-fluorophenyl)amino)-6-oxohexyl)amino)-3-oxoprop-1-en-1-yl)-2,3-dihydro-1H-inden-1-yl)-4-fluorobenzamide], at HDAC1, the inhibition at 2 µM was less than 50%, the inhibition at 10 µM lay within 50 to 80% and the inhibition at 50 µM is 50 to 80%. On HDAC3, the inhibition at 2 µM was in the range of 50 to 80%, the inhibition at 10 µM is more than 80% and the inhibition at 50 µM was more than 80%. In addition, at HDAC2, the inhibition at 2 µM is more than 80%, the inhibition at 10 µM is more than 80% and the inhibition at 50 µM is more than 80%. Besides, at ATX (autotaxin), the inhibition at 4 µM was less than 50%, the inhibition at 20 µM is less than 50% and the inhibition at 50 µM is less than 50%.
Take `O=C(/C=C/c1ccc2c(c1)CCC2NC(=O)c1ccc(F)cc1)NCCCCCC(=O)NO` (stereo not drawn) [Compound 32, (E)-4-fluoro-N-(5-(3-((6-(hydroxyamino)-6-oxohexyl)amino)-3-oxoprop-1-en-1-yl)-2,3-dihydro-1H-inden-1-yl)benzamide]: at HDAC1, the inhibition at 2 µM is more than 80%, the inhibition at 10 µM is more than 80% and the inhibition at 50 µM is more than 80%. Also, at HDAC3, the inhibition at 2 µM was in the range of 50 to 80%, the inhibition at 10 µM is more than 80% and the inhibition at 50 µM was more than 80%. At HDAC2, the inhibition at 2 µM was more than 80%, the inhibition at 10 µM was more than 80% and the inhibition at 50 µM was more than 80%. At ATX (autotaxin), this compound showed an inhibition at 4 µM of less than 50%, an inhibition at 20 µM of less than 50% and an inhibition at 50 µM of less than 50%.
Regarding `O=C(/C=C/c1ccc2c(c1)CCC2NCc1cc(C(F)(F)F)cc(C(F)(F)F)c1)NO` (stereo not drawn) [Compound 33, (E)-3-(1-((3,5-bis(trifluoromethyl)benzyl)amino)-2,3-dihydro-1H-inden-5-yl)-N-hydroxyacrylamide], at HDAC1, the inhibition at 2 µM lay in the range of 50 to 80%, the inhibition at 10 µM is more than 80% and the inhibition at 50 µM was more than 80%. Also, on HDAC3, the inhibition at 2 µM was in the range of 50 to 80%, the inhibition at 10 µM was more than 80% and the inhibition at 50 µM was more than 80%. On HDAC2, the inhibition at 2 µM lay in the range of 50 to 80%, the inhibition at 10 µM is more than 80% and the inhibition at 50 µM is more than 80%. At ATX (autotaxin), this compound registered an inhibition at 4 µM of less than 50%, an inhibition at 20 µM of less than 50% and an inhibition at 50 µM of less than 50%.
As for `O=C(/C=C/c1ccc2c(c1)CCC2OCc1cc(C(F)(F)F)cc(C(F)(F)F)c1)NO` (stereo not drawn) [Compound 34, (E)-3-(1-((3,5-bis(trifluoromethyl)benzyl)oxy)-2,3-dihydro-1H-inden-5-yl)-N-hydroxyacrylamide], on HDAC1, the inhibition at 2 µM was less than 50%, the inhibition at 10 µM was more than 80% and the inhibition at 50 µM is more than 80%. Moreover, at HDAC3, the inhibition at 2 µM is less than 50%, the inhibition at 10 µM is 50 to 80% and the inhibition at 50 µM is more than 80%. In addition, on HDAC2, the inhibition at 2 µM was in the range of 50 to 80%, the inhibition at 10 µM was more than 80% and the inhibition at 50 µM was more than 80%. Besides, at ATX (autotaxin), the inhibition at 4 µM was less than 50%, the inhibition at 20 µM was less than 50% and the inhibition at 50 µM was less than 50%.
As for `Nc1cc(F)ccc1NC(=O)/C=C/c1ccc2c(c1)CCCC2OCc1cc(C(F)(F)F)cc(C(F)(F)F)c1` (stereo not drawn) [Compound 35, (E)-N-(2-amino-4-fluorophenyl)-3-(5-((3,5-bis(trifluoromethyl)benzyl)oxy)-5,6,7,8-tetrahydronaphthalen-2-yl)acrylamide], on HDAC1, the inhibition at 2 µM was less than 50%, the inhibition at 10 µM was less than 50% and the inhibition at 50 µM is less than 50%. For the same compound, at HDAC3, the inhibition at 2 µM was less than 50%, the inhibition at 10 µM is less than 50% and the inhibition at 50 µM lay in the range of 50 to 80%. Also, at HDAC2, the inhibition at 2 µM is less than 50%, the inhibition at 10 µM was less than 50% and the inhibition at 50 µM is less than 50%. At ATX (autotaxin), this compound returned an inhibition at 4 µM of less than 50%, an inhibition at 20 µM of less than 50% and an inhibition at 50 µM of less than 50%.
With `O=C(/C=C/c1ccc2c(c1)CCCC2OCc1cc(C(F)(F)F)cc(C(F)(F)F)c1)NO` (stereo not drawn) [Compound 36, (E)-3-(5-((3,5-bis(trifluoromethyl)benzyl)oxy)-5,6,7,8-tetrahydronaphthalen-2-yl)-N-hydroxy acrylamide], at HDAC1, the inhibition at 2 µM is less than 50%, the inhibition at 10 µM is more than 80% and the inhibition at 50 µM was more than 80%. In addition, on HDAC3, the inhibition at 2 µM was less than 50%, the inhibition at 10 µM is 50 to 80% and the inhibition at 50 µM was more than 80%. Besides, at HDAC2, the inhibition at 2 µM was in the range of 50 to 80%, the inhibition at 10 µM was more than 80% and the inhibition at 50 µM was more than 80%. Also, at ATX (autotaxin), the inhibition at 4 µM is less than 50%, the inhibition at 20 µM is less than 50% and the inhibition at 50 µM is less than 50%.
As to `O=C(/C=C/c1ccc2c(c1)CCC2N1CC(=O)N(c2cc(Cl)cc(Cl)c2)C1=O)NO` (stereo not drawn) [Compound 37, (E)-3-(1-(3-(3,5-dichlorophenyl)-2,4-dioxoimidazolidin-1-yl)-2,3-dihydro-1H-inden-5-yl)-N-hydroxyacrylamide], at HDAC1, the inhibition at 2 µM was more than 80%, the inhibition at 10 µM was more than 80% and the inhibition at 50 µM is more than 80%. At HDAC3, the inhibition at 2 µM is more than 80%, the inhibition at 10 µM is more than 80% and the inhibition at 50 µM was more than 80%. Moreover, at HDAC2, the inhibition at 2 µM is more than 80%, the inhibition at 10 µM is more than 80% and the inhibition at 50 µM is more than 80%. At ATX (autotaxin), this compound displayed an inhibition at 4 µM of less than 50%, an inhibition at 20 µM of less than 50% and an inhibition at 50 µM of less than 50%.
For `COc1ccc(N2C(=O)CN(C3CCc4cc(/C=C/C(=O)NO)ccc43)C2=O)cc1` (stereo not drawn) [Compound 38, (E)-N-hydroxy-3-(1-(3-(4-methoxyphenyl)-2,4-dioxoimidazolidin-1-yl)-2,3-dihydro-1H-inden-5-yl)acrylamide], at HDAC1, the inhibition at 2 µM was more than 80%, the inhibition at 10 µM was more than 80% and the inhibition at 50 µM is more than 80%. For the same compound, on HDAC3, the inhibition at 2 µM was more than 80%, the inhibition at 10 µM was more than 80% and the inhibition at 50 µM was more than 80%. Moreover, on HDAC2, the inhibition at 2 µM was more than 80%, the inhibition at 10 µM was more than 80% and the inhibition at 50 µM is more than 80%. Besides, at ATX (autotaxin), the inhibition at 4 µM is less than 50%, the inhibition at 20 µM was less than 50% and the inhibition at 50 µM is less than 50%.
As to `Nc1cc(F)ccc1NC(=O)CCCCCCC(=O)NC1CCc2cc(Br)ccc21` (stereo not drawn) [Compound 39, N^1-(2-amino-4-fluorophenyl)-N8-(5-bromo-2,3-dihydro-1H-inden-1-yl)octanediamide], on HDAC1, the inhibition at 2 µM was less than 50%, the inhibition at 10 µM is less than 50% and the inhibition at 50 µM was less than 50%. At HDAC3, the inhibition at 2 µM is less than 50%, the inhibition at 10 µM was in the range of 50 to 80% and the inhibition at 50 µM was 50 to 80%. At HDAC2, the inhibition at 2 µM was less than 50%, the inhibition at 10 µM was less than 50% and the inhibition at 50 µM is less than 50%. Moreover, at ATX (autotaxin), the inhibition at 4 µM is less than 50%, the inhibition at 20 µM is less than 50% and the inhibition at 50 µM was less than 50%.
As for `O=C(CCCCCCC(=O)NC1CCc2cc(Br)ccc21)NO` (stereo not drawn) [Compound 40, N1-(5-bromo-2,3-dihydro-1H-inden-1-yl)-N8-hydroxyoctanediamide], at HDAC1, the inhibition at 2 µM was 50 to 80%, the inhibition at 10 µM is more than 80% and the inhibition at 50 µM was more than 80%. In addition, at HDAC3, the inhibition at 2 µM is more than 80%, the inhibition at 10 µM was more than 80% and the inhibition at 50 µM was more than 80%. For the same compound, on HDAC2, the inhibition at 2 µM is more than 80%, the inhibition at 10 µM was more than 80% and the inhibition at 50 µM was more than 80%. Besides, at ATX (autotaxin), the inhibition at 4 µM is less than 50%, the inhibition at 20 µM is less than 50% and the inhibition at 50 µM is less than 50%.
`Nc1cc(F)ccc1NC(=O)CCCCCCC(=O)NC1CCc2cc(/C=C/C(=O)Nc3cc(Cl)cc(Cl)c3)ccc21` (stereo not drawn) [Compound 41]: on HDAC1, the inhibition at 2 µM was less than 50%, the inhibition at 10 µM was less than 50% and the inhibition at 50 µM is less than 50%. At HDAC3, the inhibition at 2 µM was less than 50%, the inhibition at 10 µM is less than 50% and the inhibition at 50 µM was less than 50%. Further, at HDAC2, the inhibition at 2 µM was less than 50%, the inhibition at 10 µM is less than 50% and the inhibition at 50 µM was less than 50%. At ATX (autotaxin), this compound returned an inhibition at 4 µM of less than 50%, an inhibition at 20 µM of less than 50% and an inhibition at 50 µM of less than 50%.
Take `O=C(/C=C/c1ccc2c(c1)CCC2NC(=O)CCCCCCC(=O)NO)Nc1cc(Cl)cc(Cl)c1` (stereo not drawn) [Compound 42, (E)-N^1-(5-(3-((3,5-dichlorophenyl)amino)-3-oxoprop-1-en-1-yl)-2,3-dihydro-1H-inden-1-yl)-N^8-hydroxyoctanediamide]: on HDAC1, the inhibition at 2 µM is less than 50%, the inhibition at 10 µM was 50 to 80% and the inhibition at 50 µM is more than 80%. Moreover, on HDAC3, the inhibition at 2 µM lay in the range of 50 to 80%, the inhibition at 10 µM was more than 80% and the inhibition at 50 µM lay in the range of 50 to 80%. On HDAC2, the inhibition at 2 µM lay in the range of 50 to 80%, the inhibition at 10 µM was 50 to 80% and the inhibition at 50 µM was more than 80%. On ATX (autotaxin), this compound gave an inhibition at 4 µM of less than 50%, an inhibition at 20 µM of less than 50% and an inhibition at 50 µM of more than 80%.
